Laboratory results from patent US9480671B2, “Reduction of risk of obesity” (Nestec S.A., priority 2009, dated 2016).

Tests used:
clonal preadipocytes = conditions: compared to PPAR agonists or saturated, mono-unsaturated and n-3 polyunsaturated fatty acids; cited from earlier work
[1] = Fatty acid composition in plasma phospholipids of guinea pig pups after suckling/weaning diet; format: in vivo; conditions: compared to the control group, Table 2
Description: (§1) This example investigates the effect of feeding diets supplemented or not with ARA to newborn guinea pig pups on the development of total fat mass of the pups in the post-weaning period. The infant guinea pig is considered to be a good animal model to study the development fat mass in human infants: Indeed, like newborn human infants, guinea pig pups are born with an appreciable amount of body fat whilst newborn rat and mice pups are very lean. Newborn male guinea pigs were divided into two groups with 20 animals per group. Each group was fed a suckling/weaning diet in which 44% of the energy was supplied by fat for 21 days. The different diets were isocaloric and differed only in their ARA contents. The ARA diet contained 1.5% ARA based on total fatty acids and the control diet contained no ARA. The group receiving ARA diet is coded “ARA diet” or “+AA” in the below and in the figures. The group receiving no ARA is coded “control diet” or −AA″ in the below and in the figures. The levels of linoleic acid and α-linolenic acid were kept relatively constant between the diets such that the ratio of linoleic acid to α-linolenic acid was about 35. […] Body weight and fat mass were recorded at days 21, 51, 79, 107, 128 and 136 and plasma fatty acid composition, and plasma insulin concentrations were recorded at day 21 and day 136.

[2] = Fatty acid composition in plasma triglycerides of guinea pig pups after suckling/weaning diet; format: in vivo; conditions: compared to the control group, Table 3
Description: as §1

[3] = generally observed, estimated; cited from earlier work

incorporation of ARA in plasma phospholipids [1]	incorporation of ARA in plasma triglycerides [2]	Compound	differentiation of clonal preadipocytes (clonal preadipocytes)	maximum amount of ARA in the diet that does not induce adverse effects [3]
		CCCCC[C@H](O)/C=C/[C@@H]1[C@H]2C/C(=C/CCCC(=O)O)C[C@H]2C[C@H]1O [carbacyclin, reference compound]	mimicked	
higher	higher	CCCCC/C=C\C/C=C\C/C=C\C/C=C\CCCC(=O)O [ARA, arachidonic acid (C20:4n-6)]	substantially promoted	about 100 mg ARA/kg/day
